Source: ChEMBL document CHEMBL4425179, “Colorectal anticancer activities of polymethoxylated 3-naphthyl-5-phenylpyrazoline-carbothioamides” (Bioorg Med Chem Lett, 2016)

System: HCT-116
Assay: Growth inhibition of human HCT116 cells after 7 days by clonogenic survival assay
Assay type: functional
Settings: HCT-116, 168 h

SMILES	GI50 (read-out: GI50) [nM]	GI50 (read-out: pGI50 (converted)) [nM]
COc1ccc(NC(=S)N2N=C(c3ccc4ccccc4c3O)CC2c2ccccc2OC)c(OC)c1 (configuration not stated)	4200	4170
COc1cccc(C2CC(c3ccc4ccccc4c3O)=NN2C(=S)Nc2ccccc2)c1 (configuration not stated)	321	324
COc1ccccc1NC(=S)N1N=C(c2c(O)ccc3ccccc23)CC1c1ccccc1OC (configuration not stated)	3970	3980
COc1cccc(NC(=S)N2N=C(c3ccc4ccccc4c3O)CC2c2cccc(OC)c2)c1 (configuration not stated)	272	269
COc1cccc(C2CC(c3ccc4ccccc4c3O)=NN2C(=S)Nc2cc(OC)c(OC)c(OC)c2)c1 (configuration not stated)	201	200
COc1ccccc1NC(=S)N1N=C(c2ccc3ccccc3c2O)CC1c1ccccc1OC (configuration not stated)	4920	4900
COc1ccc(C2CC(c3ccc4ccccc4c3O)=NN2C(=S)Nc2ccccc2OC)cc1 (configuration not stated)	3540	3550
COc1cccc(C2CC(c3ccc4ccccc4c3O)=NN2C(=S)Nc2ccc(OC)cc2OC)c1 (configuration not stated)	2430	2450
COc1ccccc1C1CC(c2c(O)ccc3ccccc23)=NN1C(=S)Nc1cc(OC)c(OC)c(OC)c1 (configuration not stated)	994	1000
COc1ccc(NC(=S)N2N=C(c3c(O)ccc4ccccc34)CC2c2ccccc2OC)cc1 (configuration not stated)	742	741
COc1ccccc1C1CC(c2ccc3ccccc3c2O)=NN1C(=S)Nc1ccccc1 (configuration not stated)	742	741
